Type in all cases: biochemical
In one assay the target is Human Thrombin (Homo sapiens, UniProt P00734). Put plainly: Inhibition of amidase activity of thrombin (Kass).
Another assay has as its target T1, factor Xa (Homo sapiens, UniProt P00742).
T1 construct: Human factors X, Xa, IXa, XIa, and XIIa are purchased; purchased Enzyme Research Laboratories, South Bend, Ind
Description: Kass with factor Xa, chromogenic substrate. The conditions noted are these: substrate N-Benzoyl-Ile-Glu-Gly-Arg-p-nitroanilide. How it is done:
(§1) By substantially following the procedures described above for human thrombin, and using other human blood coagulation system serine proteases and proteases of the fibrinolytic system with the appropriate chromogenic substrates, identified below, selectivity of the compounds of the present invention with respect to the coagulation factor serine proteases and with respect to the fibrinolytic system serine proteases are evaluated as well as their substantial lack of interference with serine proteases of the fibrinolytic system. Thrombin inhibitors preferably should spare fibrinolysis induced by urokinase, tissue plasminogen activator (t-PA) and streptokinase. This would be important to the therapeutic use of such agents as an adjunct to streptokinase, t-PA or urokinase thrombolytic therapy and to the use of such agents as an endogenous fibrinolysis-sparing (with respect to t-PA and urokinase) antithrombotic agent. In addition to the lack of interference with the amidase activity of the fibrinolytic proteases, such fibrinolytic system sparing can be studied by the use of human plasma clots and their lysis by the respective fibrinolytic plasminogen activators.
Human factors X, Xa, IXa, XIa, and XIIa are purchased from Enzyme Research Laboratories, South Bend, Ind.; human urokinase from Leo Pharmaceuticals, Denmark; and recombinant activated Protein C (aPC) is prepared at Eli Lilly and Co. substantially according to U.S. Patent No. 4,981,952. Chromogenic substrates: N-Benzoyl-Ile-Glu-Gly-Arg-p-nitroanilide (for factor Xa); N-Cbz-D-Arg-Gly-Arg-p-nitroanilide (for factor IXa assay as the factor Xa substrate); Pyroglutamyl-Pro-Arg-p-nitroanilide (for Factor XIa and for aPC); H-D-Pro-Phe-Arg-p-nitroanilide (for factor XIIa); and Pyroglutamyl-Gly-Arg-p-nitroanilide (for urokinase); are purchased from KabiVitrum, Stockholm, Sweden, or from Midwest Biotech, Fishers, Ind. Bovine trypsin is purchased from Worthington Biochemicals, Freehold, N.J., and human plasma kallikrein from Kabi Vitrum, Stockholm, Sweden. Chromogenic substrate H-D-Pro-Phe-Arg-p-nitroanilide for plasma kallikrein is purchased from Kabi Vitrum, Stockholm, Sweden. N-Benzoyl-Phe-Val-Arg-p-nitroanilide, the substrate for human thrombin and for trypsin, is synthesized according to procedures described above for the compounds of the present invention, using known methods of peptide coupling from commercially available reactants or purchased from Midwest Biotech, Fishers, Ind.

Another assay deals with T2, Bovine trypsin (Bos taurus, UniProt P00760).
T2 construct: Bovine trypsin is purchased; purchased Worthington Biochemicals, Freehold, N.J
T2 sequence (P00760 24-246): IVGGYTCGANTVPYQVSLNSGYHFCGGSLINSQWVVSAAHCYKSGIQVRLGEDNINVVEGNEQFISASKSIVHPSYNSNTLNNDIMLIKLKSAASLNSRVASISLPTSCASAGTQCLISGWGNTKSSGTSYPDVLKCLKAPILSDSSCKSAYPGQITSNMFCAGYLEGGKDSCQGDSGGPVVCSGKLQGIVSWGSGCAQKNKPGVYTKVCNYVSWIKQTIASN
Put plainly: Kass with trypsin, chromogenic substrate. As to conditions: substrate N-Benzoyl-Phe-Val-Arg-p-nitroanilide.

The target in a further assay is T3, Human plasmin (Homo sapiens, UniProt P00747).
T3 construct: Human plasmin is purchased; purchased Boehringer Mannheim, Indianapolis, Ind
T3 sequence (P00747 97-810): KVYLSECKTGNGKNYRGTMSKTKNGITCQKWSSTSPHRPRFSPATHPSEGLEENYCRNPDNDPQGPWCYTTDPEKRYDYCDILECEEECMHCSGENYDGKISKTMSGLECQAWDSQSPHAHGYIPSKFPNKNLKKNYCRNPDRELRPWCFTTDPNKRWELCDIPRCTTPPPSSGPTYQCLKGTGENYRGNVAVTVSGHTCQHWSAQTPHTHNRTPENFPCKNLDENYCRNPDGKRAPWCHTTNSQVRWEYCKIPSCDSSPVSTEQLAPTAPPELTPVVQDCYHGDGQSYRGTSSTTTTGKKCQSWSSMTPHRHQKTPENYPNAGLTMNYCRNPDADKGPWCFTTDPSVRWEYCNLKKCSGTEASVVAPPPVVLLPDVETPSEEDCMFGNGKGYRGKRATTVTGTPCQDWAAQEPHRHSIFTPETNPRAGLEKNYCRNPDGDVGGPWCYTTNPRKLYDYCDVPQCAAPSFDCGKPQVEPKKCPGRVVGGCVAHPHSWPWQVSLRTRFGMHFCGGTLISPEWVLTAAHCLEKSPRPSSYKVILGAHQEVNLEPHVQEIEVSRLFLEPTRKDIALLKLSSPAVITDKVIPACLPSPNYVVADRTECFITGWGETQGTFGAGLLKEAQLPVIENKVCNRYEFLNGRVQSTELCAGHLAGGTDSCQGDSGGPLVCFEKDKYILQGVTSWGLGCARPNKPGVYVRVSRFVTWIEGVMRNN
T3 sequence (P00747 97-580 partner limits assumed): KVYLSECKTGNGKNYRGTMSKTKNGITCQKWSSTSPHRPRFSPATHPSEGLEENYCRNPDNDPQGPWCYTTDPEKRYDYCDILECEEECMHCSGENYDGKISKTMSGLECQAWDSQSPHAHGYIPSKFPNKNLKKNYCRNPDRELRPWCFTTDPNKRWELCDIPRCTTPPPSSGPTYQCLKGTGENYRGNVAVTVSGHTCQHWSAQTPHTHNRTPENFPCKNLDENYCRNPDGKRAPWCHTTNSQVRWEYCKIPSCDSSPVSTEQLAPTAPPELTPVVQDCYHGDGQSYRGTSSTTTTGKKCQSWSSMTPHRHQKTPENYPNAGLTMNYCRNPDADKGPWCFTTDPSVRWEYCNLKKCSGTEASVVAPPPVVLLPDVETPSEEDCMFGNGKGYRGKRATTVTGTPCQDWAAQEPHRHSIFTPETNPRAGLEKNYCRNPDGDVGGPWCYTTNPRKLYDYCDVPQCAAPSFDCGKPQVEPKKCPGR
Description: Kass with plasmin, chromogenic substrate. As to conditions: substrate H-D-Val-Leu-Lys-p-nitroanilide. The protocol: as §1
Human plasmin is purchased from Boehringer Mannheim, Indianapolis, Ind.; nt-PA is purchased as single chain activity reference from American Diagnostica, Greenwich, Conn. modified-t-PA6 (mt-PA6) is prepared at Eli Lilly and Company by procedure known in the art (See, Burck, et al., J. Biol. Chem., 265, […] (1990). Plasmin chromogenic substrate H-D-Val-Leu-Lys-p-nitroanilide and tissue plasminogen activator (t-PA) substrate H-D-Ile-Pro-Arg-p-nitroanilide are purchased from Kabi Vitrum, Stockholm, Sweden.

Assay [1] deals with Human plasma. Put plainly: Human plasma anticoagulation, thrombin time (TT). The conditions noted are these: concentration required to double the thrombin time, linear extrapolation. In outline: (§2)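 Test compounds are added to human plasma at many concentrations. Clotting is then initiated by reagent (Thromboplastin-C for PT; Actin for 120 s followed by 0.02M calcium chloride for APTT; 10 NIH units/mL bovine thrombin for TT) and timed instrumentally. The concentration giving twofold prolongation is derived by linear extrapolation.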

For assay [2], the system named is Human plasma. Put plainly: Human plasma anticoagulation, activated partial thromboplastin time (APTT). As to conditions: concentration required to double the APTT, linear extrapolation. In short, it runs like this: as §2
Assay [3] relates to Human plasma. Description: Human plasma anticoagulation, prothrombin time (PT). As to conditions: concentration required to double the PT, linear extrapolation. In outline: as §2
Where [4] appears, read: mean over a range of concentrations, […].

Structures can show the parent of a compound that is named as a salt. Where two headings read alike, the source gives them in different places.

T1 sequence (P00742 235-488 limits assumed): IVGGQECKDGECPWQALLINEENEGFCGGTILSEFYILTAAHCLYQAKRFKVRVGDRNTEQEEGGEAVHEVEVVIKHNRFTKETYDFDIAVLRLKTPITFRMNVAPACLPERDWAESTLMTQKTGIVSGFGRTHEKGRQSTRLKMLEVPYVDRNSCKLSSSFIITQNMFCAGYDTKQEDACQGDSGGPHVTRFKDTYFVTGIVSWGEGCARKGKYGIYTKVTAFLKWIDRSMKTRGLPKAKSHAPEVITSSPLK
T1 sequence (P00742 41-179 partner limits assumed): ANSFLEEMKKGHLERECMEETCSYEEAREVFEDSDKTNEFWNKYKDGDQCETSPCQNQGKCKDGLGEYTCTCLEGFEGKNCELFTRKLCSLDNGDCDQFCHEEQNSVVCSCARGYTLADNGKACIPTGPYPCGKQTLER

Regarding `N=C(N)c1ccc(CNC(=O)[C@@H]2C[C@@H]3CCCC[C@@H]3N2C(=O)[C@@H]2NCC[C@@H]3CCCC[C@@H]32)cc1` (relative stereo) [Example 42, D-1-Piq-cis-Ohi-p-NHCH2 C6 H4 C(NH)NH2.2HCl], at Human Thrombin, the “Kass Human Thrombin” value is recorded as 38. The “Kass Xa” value on factor Xa was 0.07 × 10^6 (L/mole). The “Kass Trypsin” value on Bovine trypsin is listed as 43 × 10^6 (L/mole). Also, the “Kass Plasmin” value on Human plasmin was 0.12 × 10^6 (L/mole). Besides, in the assay on Human plasma [1], the “Human Plasma Anticoagulation 2× Clotting time TT” value is 20 ng/mL. For the same compound, the “Human Plasma Anticoagulation 2× Clotting time APTT” value in the assay with Human plasma [2] is on record as 270 ng/mL. Also, the “Human Plasma Anticoagulation 2× Clotting time PT” value with Human plasma [3] is recorded as 320 ng/mL.
Regarding `N=C(N)c1ccc(CNC(=O)[C@@H]2C[C@@H]3CCCC[C@@H]3N2C(=O)[C@H]2C[C@H]3CCCC[C@H]3CN2)cc1` (relative stereo) [Example 43, D-3-Piq-cis-Ohi-p-NHCH2 C6 H4 C(NH)NH2.2HCl], on Human Thrombin (setting [4]), the “Kass Human Thrombin” value is recorded as 1.4 × 10^6 (L/mole). For the same compound, the “Kass Xa” value on factor Xa is given as 0.05 × 10^6 (L/mole). Besides, the “Kass Trypsin” value at Bovine trypsin is reported as 100 × 10^6 (L/mole). Also, the “Kass Plasmin” value at Human plasmin is recorded as 0.30 × 10^6 (L/mole). Moreover, the “Human Plasma Anticoagulation 2× Clotting time TT” value in the assay on Human plasma [1] was 280 ng/mL. In addition, the “Human Plasma Anticoagulation 2× Clotting time APTT” value in the assay with Human plasma [2] is 1,100 ng/mL. Moreover, the “Human Plasma Anticoagulation 2× Clotting time PT” value in the assay on Human plasma [3] is reported as 930 ng/mL.
Take `N=C(N)c1ccc(CNC(=O)[C@@H]2C[C@@H]3CCCC[C@@H]3N2C(=O)[C@@H](Cc2ccccc2)NCC(=O)O)cc1` (relative stereo) [Example 47, HOOCCH2 -D-Phe-cis-Ohi-p-NHCH2 C6 H4 C(NH)NH2.HCl]: on Human Thrombin, the “Kass Human Thrombin” value is given as 45. Besides, the “Kass Xa” value at factor Xa is recorded as 0.04 × 10^6 (L/mole). In addition, the “Kass Trypsin” value on Bovine trypsin is 82 × 10^6 (L/mole). In addition, the “Kass Plasmin” value at Human plasmin is on record as 0.18 × 10^6 (L/mole). Further, the “Human Plasma Anticoagulation 2× Clotting time TT” value in the assay with Human plasma [1] was 12 ng/mL. In the assay on Human plasma [2], the “Human Plasma Anticoagulation 2× Clotting time APTT” value was 140 ng/mL. For the same compound, the “Human Plasma Anticoagulation 2× Clotting time PT” value in the assay on Human plasma [3] is on record as 270 ng/mL.
For the compound `N=C(N)c1cccc(CNC(=O)[C@@H]2CCCN2C(=O)[C@@H]2NCC[C@@H]3CCCC[C@@H]32)c1` [Example 25, D-1-Piq-Pro-m-NHCH2 --C6 H4 C(=NH)NH2.HCl], the “Kass Human Thrombin” value on Human Thrombin (setting [4]) is listed as 0.43 × 10^6 (L/mole). Further, the “Kass Xa” value on factor Xa is reported as < 0.001 × 10^6 (L/mole). Also, the “Kass Trypsin” value at Bovine trypsin is reported as 0.01 × 10^6 (L/mole). Also, at Human plasmin, the “Kass Plasmin” value is reported as < 0.001 × 10^6 (L/mole). In addition, the “Human Plasma Anticoagulation 2× Clotting time TT” value in the assay with Human plasma [1] is recorded as 1,430 ng/mL. For the same compound, the “Human Plasma Anticoagulation 2× Clotting time APTT” value with Human plasma [2] is listed as 34,600 ng/mL. Also, the “Human Plasma Anticoagulation 2× Clotting time PT” value in the assay on Human plasma [3] is 40,400 ng/mL.
For the compound `CCS(=O)(=O)N[C@H](Cc1ccccc1)C(=O)N1CCC[C@H]1C(=O)NCCc1ccc(C(=N)N)cc1` [Example 26, EtSO2 -D-Phe-Pro-p-NHCH2 CH2 --C6 H4 C(=NH)NH2.HCl], on Human Thrombin (setting [4]), the “Kass Human Thrombin” value is given as 13 × 10^6 (L/mole). Besides, the “Kass Xa” value at factor Xa is listed as 0.01 × 10^6 (L/mole). Besides, on Bovine trypsin, the “Kass Trypsin” value was 0.21 × 10^6 (L/mole). The “Kass Plasmin” value on Human plasmin was 0.01 × 10^6 (L/mole). The “Human Plasma Anticoagulation 2× Clotting time TT” value with Human plasma [1] is listed as 37 ng/mL. The “Human Plasma Anticoagulation 2× Clotting time APTT” value in the assay on Human plasma [2] is recorded as 870 ng/mL. The “Human Plasma Anticoagulation 2× Clotting time PT” value in the assay with Human plasma [3] was 750 ng/mL.
As for “HOOCCH2 -D-hPhe-Pro-p-NHCH2 C6 H4 C(NH)NH2.HCl [Example 87]”, on Human Thrombin (setting [4]), the “Kass Human Thrombin” value is listed as 30 × 10^6 (L/mole). Also, the “Kass Xa” value at factor Xa is 2.5 × 10^6 (L/mole). Moreover, the “Human Plasma Anticoagulation 2× Clotting time TT” value with Human plasma [1] is given as 9 ng/mL. Further, the “Human Plasma Anticoagulation 2× Clotting time APTT” value in the assay with Human plasma [2] is 260 ng/mL. In addition, the “Human Plasma Anticoagulation 2× Clotting time PT” value in the assay with Human plasma [3] is given as 310 ng/mL.
